Earlier results on two compounds are cited in publication PMC10686834, “Targeting myeloid chemotaxis to reverse prostate cancer therapy resistance” (Nature, 2023).

The subject of data set [1] is CYP3A4. Details: method as in U.S enzalutamide Full Prescribing Information. As to conditions: single 160mg oral dose after multiple oral doses of itraconazole; ref U.S enzalutamide Full Prescribing Information; cited from earlier work.
In another data set the test system is CYP2C19. Also on record: method as in U.S enzalutamide Full Prescribing Information. As to conditions: steady state; ref U.S enzalutamide Full Prescribing Information; cited from earlier work.
The test system of data set [2] is patients with progressive castration resistant prostate cancer previously treated with docetaxel. Details: method as in ref (8) (a number printed in a supplementary file, which may have a reference list of its own: not looked up in the article's list). As to conditions: AFFIRM, ref (8), cited from earlier work.
Data set [3] has as its system CYP3A4. Details: method as in U.S enzalutamide Full Prescribing Information. As to conditions: steady state; ref U.S enzalutamide Full Prescribing Information; cited from earlier work.
Data set [4] concerns chemotherapy naïve patients with progressive metastatic prostate cancer. Details: method as in ref (17) (a number printed in a supplementary file, which may have a reference list of its own: not looked up in the article's list). The note with it: PREVAIL, ref (17), cited from earlier work.
In another data set the test system is CYP2C9. Also on record: method as in U.S enzalutamide Full Prescribing Information. As to conditions: steady state; ref U.S enzalutamide Full Prescribing Information; cited from earlier work.
On the set-up of data set [5]: method as in U.S enzalutamide Full Prescribing Information. As to conditions: ref U.S enzalutamide Full Prescribing Information, cited from earlier work.
In the next data set the test system is mCRPC patients. Also on record: method as in ref (10) (a number printed in a supplementary file, which may have a reference list of its own: not looked up in the article's list). The note with it: ref (10), cited from earlier work.

Like-named read-outs stand apart in the source and are kept apart here.

As for `CNC(=O)c1ccc(N2C(=S)N(c3ccc(C#N)c(C(F)(F)F)c3)C(=O)C2(C)C)cc1F` [enzalutamide], the “increase of AUC0-inf of enzalutamide plus N-desmethyl-enzalutamide” value in the data set on CYP3A4 [1] is recorded as 1.3 fold. The “CYP2C19 induction in humans” value with CYP2C19 is reported as “moderate”. For the same compound, the median overall survival in data set [2] (enzalutamide group (800 patients)) is on record as 18.4 months. The “incidence of grade 3 adverse events” value in data set [2] (enzalutamide group) is 45.3%. In data set [2] (enzalutamide vs placebo), the “HR, radiographic progression-free survival” value was 0.40; the “HR, time to PSA progression” value is 0.25; the “HR, time to first skeletal-related event” value is recorded as 0.69. For the same compound, in data set [2] (enzalutamide), the “quality of life response rate” value was 43%, the radiographic progression-free survival is reported as 8.3 months, the “reduction in PSA level by 50% or more” value is given as 54% and the “soft tissue response rate” value is given as 29%. Also, in data set [2] (enzalutamide), the “time to PSA progression” value is given as 8.3 months and the “time to first skeletal-related event” value is 16.7 months. In data set [2] (patients receiving enzalutamide), the “liver-function abnormalities reported as adverse events” value was 1%. Further, the “CYP3A4 induction in humans” value in the data set on CYP3A4 [3] is reported as “strong”. In data set [4] (enzalutamide group), the “grade 3 or higher adverse events” value was 43%; the “hypertension, grade 3 or higher” value is 7%; the “patients alive at time of analysis” value is reported as 72%; the “rate of radiographic progression-free survival at 12 months” value is on record as 65%. Also, in data set [4] (enzalutamide vs placebo), the “HR, radiographic progression-free survival” value is reported as 0.19; the “HR, survival” value is recorded as 0.71; the “HR, time to PSA progression” value is listed as 0.17; the “HR, time to initiation of cytotoxic therapy” value is given as 0.35. The “HR, time until the first skeletal-related event” value in data set [4] (enzalutamide vs placebo) is given as 0.72. Moreover, in data set [4] (enzalutamide), the “complete/partial soft tissue response” value is reported as 59% and the “reduction in PSA level by 50% or more” value was 78%. Moreover, the “CYP2C9 induction in humans” value in the data set with CYP2C9 is “moderate”. Also, the “time to maximum plasma concentration (tmax)” value in data set [5] (after a single oral dose) is 1 h. Further, the “time to reach steady state concentrations” value in data set [5] (daily oral administration) was “approximately 1 month”. Besides, in data set [5] (steady state), the “average difference between peak (Cmax) and trough (Cmin) concentrations” value is 25%.

Consider `C[C@]12CC[C@H](O)CC1=CC[C@@H]1[C@@H]2CC[C@]2(C)C(c3cccnc3)=CC[C@@H]12` [abiraterone], for which the figures for the “patients responding to abiraterone (PSA decline ≥50% below baseline maintained for ≥3 weeks)” value in the data set on mCRPC patients (patients with an NLR > 5) and in the data set on mCRPC patients (patients with an NLR ≤ 5) were 16% and 49%, respectively.
